# Data taken from paper PMC5951806, “Rapid labelling and covalent inhibition of intracellular native proteins using ligand-directed N-acyl-N-alkyl sulfonamide” (Nature Communications, 2018).
# What was measured:
# Experiment in all cases: TMT LC-MSMS of 11-labelled proteins
# Alpha-actinin-4 (ACTN4) = Alpha-actinin-4 (ACTN4) (Homo sapiens, UniProt O43707); format: cell-based
# Source text: (§1) Supplement 41467_2018_4343_MOESM4_ESM.xlsx, sheet "Exp2" | column: Abundance Ratio: (11) / (11 with PU-H71); Abundance Ratio: (11) / (DMSO); Abundances (Grouped): 11; Abundances (Grouped): 11 with PU-H71
# [1] = biological target: Dolichyl-diphosphooligosaccharide--protein glycosyltransferase 48 kDa subunit (DDOST) (Homo sapiens, UniProt P39656); format: cell-based
# Dolichyl-diphosphooligosaccharide--protein glycosyltransferase 48 kDa subunit (DDOST), sequence (P39656 43-456): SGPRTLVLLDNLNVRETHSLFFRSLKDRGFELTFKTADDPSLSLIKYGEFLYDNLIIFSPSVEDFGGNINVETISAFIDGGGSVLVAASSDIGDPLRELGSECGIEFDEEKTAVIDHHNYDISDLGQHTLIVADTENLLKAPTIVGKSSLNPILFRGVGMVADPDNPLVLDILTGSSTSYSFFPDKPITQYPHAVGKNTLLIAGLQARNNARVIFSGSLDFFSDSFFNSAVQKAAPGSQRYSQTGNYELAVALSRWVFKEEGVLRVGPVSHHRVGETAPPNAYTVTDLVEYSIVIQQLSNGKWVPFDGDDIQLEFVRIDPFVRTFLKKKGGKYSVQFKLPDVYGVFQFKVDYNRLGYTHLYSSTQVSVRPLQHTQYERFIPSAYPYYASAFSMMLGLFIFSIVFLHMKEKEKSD
# Dolichyl-diphosphooligosaccharide--protein glycosyltransferase 48 kDa subunit (DDOST), sequence (P04843 24-607 partner): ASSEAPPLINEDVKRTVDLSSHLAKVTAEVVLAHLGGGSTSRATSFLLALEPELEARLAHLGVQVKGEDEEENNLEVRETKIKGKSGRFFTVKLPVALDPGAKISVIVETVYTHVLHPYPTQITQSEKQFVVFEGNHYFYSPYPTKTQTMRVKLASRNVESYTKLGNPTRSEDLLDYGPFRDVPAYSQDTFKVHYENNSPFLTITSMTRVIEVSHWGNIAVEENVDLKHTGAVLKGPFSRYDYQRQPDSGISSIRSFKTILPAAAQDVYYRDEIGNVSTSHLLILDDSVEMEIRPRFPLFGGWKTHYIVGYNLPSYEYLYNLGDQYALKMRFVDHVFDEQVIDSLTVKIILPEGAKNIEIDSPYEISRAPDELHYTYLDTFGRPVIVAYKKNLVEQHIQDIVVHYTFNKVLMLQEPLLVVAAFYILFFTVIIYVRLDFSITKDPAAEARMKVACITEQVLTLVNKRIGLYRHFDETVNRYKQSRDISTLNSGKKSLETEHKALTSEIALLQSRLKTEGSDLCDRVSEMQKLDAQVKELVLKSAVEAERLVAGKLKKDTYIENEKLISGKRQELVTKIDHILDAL
# Dolichyl-diphosphooligosaccharide--protein glycosyltransferase 48 kDa subunit (DDOST), sequence (P04844 23-631 partner): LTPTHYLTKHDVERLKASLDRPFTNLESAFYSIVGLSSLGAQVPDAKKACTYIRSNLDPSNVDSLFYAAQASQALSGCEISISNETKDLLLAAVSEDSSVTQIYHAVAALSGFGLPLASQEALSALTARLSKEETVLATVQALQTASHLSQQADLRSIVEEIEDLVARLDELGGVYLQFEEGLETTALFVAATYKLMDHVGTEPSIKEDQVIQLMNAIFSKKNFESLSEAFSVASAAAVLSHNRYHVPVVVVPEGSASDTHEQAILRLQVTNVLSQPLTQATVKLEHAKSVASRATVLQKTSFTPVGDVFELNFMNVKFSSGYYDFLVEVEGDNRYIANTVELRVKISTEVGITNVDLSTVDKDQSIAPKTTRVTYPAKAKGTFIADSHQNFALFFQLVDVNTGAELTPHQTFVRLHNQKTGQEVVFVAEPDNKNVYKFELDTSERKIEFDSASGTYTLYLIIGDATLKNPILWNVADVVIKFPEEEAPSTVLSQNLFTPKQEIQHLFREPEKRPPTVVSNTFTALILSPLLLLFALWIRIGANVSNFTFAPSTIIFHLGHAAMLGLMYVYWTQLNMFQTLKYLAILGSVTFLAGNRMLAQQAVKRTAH
# Dolichyl-diphosphooligosaccharide--protein glycosyltransferase 48 kDa subunit (DDOST), sequence (P61803 whole entry partner): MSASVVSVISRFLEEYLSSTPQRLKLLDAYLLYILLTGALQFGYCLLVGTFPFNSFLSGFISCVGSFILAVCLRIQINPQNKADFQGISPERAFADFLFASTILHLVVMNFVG
# Dolichyl-diphosphooligosaccharide--protein glycosyltransferase 48 kDa subunit (DDOST), sequence (P61165 whole entry partner): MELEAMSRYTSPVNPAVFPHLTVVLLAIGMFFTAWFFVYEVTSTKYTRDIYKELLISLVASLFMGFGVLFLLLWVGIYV
# Dolichyl-diphosphooligosaccharide--protein glycosyltransferase 48 kDa subunit (DDOST), sequence (P0C6T2 whole entry partner): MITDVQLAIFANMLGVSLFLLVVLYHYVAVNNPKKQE
# Source text: as §1
# [2] = biological target: Dolichyl-diphosphooligosaccharide--protein glycosyltransferase subunit 1 (RPN1) (Homo sapiens, UniProt P04843); format: cell-based
# Dolichyl-diphosphooligosaccharide--protein glycosyltransferase subunit 1 (RPN1), sequence (P04843 24-607): as the sequence (P04843 24-607 partner) above
# Dolichyl-diphosphooligosaccharide--protein glycosyltransferase subunit 1 (RPN1), sequence (P39656 43-456 partner): as the sequence (P39656 43-456) above
# Dolichyl-diphosphooligosaccharide--protein glycosyltransferase subunit 1 (RPN1), sequence (P04844 23-631 partner): as the sequence (P04844 23-631 partner) above
# Dolichyl-diphosphooligosaccharide--protein glycosyltransferase subunit 1 (RPN1), sequence (P61803 whole entry partner): as the sequence (P61803 whole entry partner) above
# Dolichyl-diphosphooligosaccharide--protein glycosyltransferase subunit 1 (RPN1), sequence (P61165 whole entry partner): as the sequence (P61165 whole entry partner) above
# Dolichyl-diphosphooligosaccharide--protein glycosyltransferase subunit 1 (RPN1), sequence (P0C6T2 whole entry partner): as the sequence (P0C6T2 whole entry partner) above
# Source text: as §1
# [3] = biological target: Hemoglobin subunit alpha (HBA2; HBA1) (Homo sapiens, UniProt P69905); format: cell-based
# Hemoglobin subunit alpha (HBA2; HBA1), sequence (P69905 2-142 limits assumed): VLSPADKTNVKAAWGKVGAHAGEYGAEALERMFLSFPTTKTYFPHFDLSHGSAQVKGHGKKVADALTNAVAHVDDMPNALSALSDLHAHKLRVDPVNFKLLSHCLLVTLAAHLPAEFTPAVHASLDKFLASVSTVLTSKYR
# Source text: as §1
# [4] = biological target: Isoform 2 of Glucose-6-phosphate isomerase (GPI) (Homo sapiens, UniProt P06744); format: cell-based
# Source text: as §1
# [5] = biological target: T1, Monocarboxylate transporter 4 (SLC16A3) (Homo sapiens, UniProt O15427); format: cell-based
# T1 sequence (O15427 1-465): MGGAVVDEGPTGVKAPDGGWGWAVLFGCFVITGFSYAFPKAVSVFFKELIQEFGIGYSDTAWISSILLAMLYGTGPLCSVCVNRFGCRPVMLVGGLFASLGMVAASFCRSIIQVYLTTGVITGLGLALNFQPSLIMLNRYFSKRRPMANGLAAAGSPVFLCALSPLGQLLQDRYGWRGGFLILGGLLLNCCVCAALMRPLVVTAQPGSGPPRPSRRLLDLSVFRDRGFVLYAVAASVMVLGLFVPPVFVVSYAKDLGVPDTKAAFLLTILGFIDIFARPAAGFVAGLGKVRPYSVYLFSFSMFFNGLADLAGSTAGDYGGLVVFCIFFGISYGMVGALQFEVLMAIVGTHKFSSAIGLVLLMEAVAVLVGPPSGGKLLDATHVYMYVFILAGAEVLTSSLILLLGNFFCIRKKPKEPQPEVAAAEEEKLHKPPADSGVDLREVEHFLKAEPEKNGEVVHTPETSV
# Source text: as §1
# [6] = biological target: T2, Phosphate carrier protein, mitochondrial (SLC25A3) (Homo sapiens, UniProt Q00325); format: cell-based
# T2 sequence (Q00325 50-362): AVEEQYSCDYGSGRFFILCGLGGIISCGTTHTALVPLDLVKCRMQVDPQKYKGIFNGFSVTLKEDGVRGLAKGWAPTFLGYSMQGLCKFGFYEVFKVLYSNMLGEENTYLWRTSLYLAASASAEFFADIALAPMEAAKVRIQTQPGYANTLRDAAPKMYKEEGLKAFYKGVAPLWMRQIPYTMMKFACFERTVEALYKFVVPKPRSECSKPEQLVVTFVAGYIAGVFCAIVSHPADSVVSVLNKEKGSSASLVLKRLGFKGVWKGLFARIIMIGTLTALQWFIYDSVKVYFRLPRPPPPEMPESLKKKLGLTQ
# Source text: as §1
# protein MAL2 (MAL2) = protein MAL2 (MAL2) (Homo sapiens, UniProt Q969L2); format: cell-based
# protein MAL2 (MAL2), sequence (Q969L2 whole entry): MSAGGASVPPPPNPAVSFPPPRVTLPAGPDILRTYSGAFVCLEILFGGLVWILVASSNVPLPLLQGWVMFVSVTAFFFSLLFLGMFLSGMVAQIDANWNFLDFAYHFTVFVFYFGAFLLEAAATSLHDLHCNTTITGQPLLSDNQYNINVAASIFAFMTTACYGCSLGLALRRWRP
# Source text: as §1
# [7] = test system: immunoglobulin gamma-1 heavy chain; format: cell-based, Homo sapiens
# Source text: Supplement 41467_2018_4343_MOESM4_ESM.xlsx, sheet "Exp3" | column: Abundance Ratio: (11) / (11 with PU-H71); Abundance Ratio: (11) / (DMSO); Abundances (Grouped): 11; Abundances (Grouped): 11 with PU-H71
# [8] = test system: immunoglobulin gamma-1 heavy chain; format: cell-based, Homo sapiens; remark: listed apart in the source
# Source text: as §1
# Alpha-actinin-4 (ACTN4), sequence (O43707 whole entry): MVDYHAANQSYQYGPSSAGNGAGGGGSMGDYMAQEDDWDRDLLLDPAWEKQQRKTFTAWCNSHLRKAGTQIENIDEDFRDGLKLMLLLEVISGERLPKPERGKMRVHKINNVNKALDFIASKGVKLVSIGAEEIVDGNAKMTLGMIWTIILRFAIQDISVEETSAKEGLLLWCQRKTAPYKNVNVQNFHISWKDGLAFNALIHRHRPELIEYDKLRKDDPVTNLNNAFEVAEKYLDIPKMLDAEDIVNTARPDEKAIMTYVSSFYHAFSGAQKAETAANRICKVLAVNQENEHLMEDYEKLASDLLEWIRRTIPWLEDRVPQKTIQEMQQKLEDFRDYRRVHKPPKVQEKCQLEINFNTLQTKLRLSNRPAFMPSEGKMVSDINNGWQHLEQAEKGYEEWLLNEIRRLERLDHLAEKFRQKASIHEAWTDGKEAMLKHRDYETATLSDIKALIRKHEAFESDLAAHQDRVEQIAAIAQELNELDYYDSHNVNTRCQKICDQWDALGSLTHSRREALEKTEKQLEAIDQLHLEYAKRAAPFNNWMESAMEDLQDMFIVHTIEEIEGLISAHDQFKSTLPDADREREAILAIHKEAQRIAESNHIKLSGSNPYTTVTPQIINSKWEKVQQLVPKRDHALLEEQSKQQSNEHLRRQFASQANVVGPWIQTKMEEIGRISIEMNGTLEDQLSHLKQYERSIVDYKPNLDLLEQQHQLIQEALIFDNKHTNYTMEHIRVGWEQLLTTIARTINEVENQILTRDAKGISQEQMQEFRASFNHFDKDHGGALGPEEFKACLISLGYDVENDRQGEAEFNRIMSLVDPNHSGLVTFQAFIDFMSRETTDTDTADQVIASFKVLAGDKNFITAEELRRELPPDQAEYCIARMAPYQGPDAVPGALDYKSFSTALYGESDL
compound,measurement,setting,value
CC(=O)Oc1ccc2c(c1)Oc1cc(OC(C)=O)ccc1C21OC(=O)c2cc(C(=O)NCCOCCOCCNC(=O)CCCC(=O)N(CC#N)S(=O)(=O)c3ccc(C(=O)NCCCn4c(Sc5cc6c(cc5I)OCO6)nc5c(N)ncnc54)cc3)ccc21 [compound 11],Abundance Ratio: (11) / (11 with PU-H71),Alpha-actinin-4 (ACTN4); sheet Exp2,0.876
same,Abundance Ratio: (11) / (DMSO),Alpha-actinin-4 (ACTN4); sheet Exp2,1.667
same,Abundances (Grouped): 11,Alpha-actinin-4 (ACTN4); sheet Exp2,24
same,Abundances (Grouped): 11 with PU-H71,"Alpha-actinin-4 (ACTN4); sheet Exp2, with PU-H71",27.4
same,Abundance Ratio: (11) / (11 with PU-H71),[1]; sheet Exp2,0.942
same,Abundance Ratio: (11) / (DMSO),[1]; sheet Exp2,2.044
same,Abundances (Grouped): 11,[1]; sheet Exp2,37.4
same,Abundances (Grouped): 11 with PU-H71,"[1]; sheet Exp2, with PU-H71",39.7
same,Abundance Ratio: (11) / (11 with PU-H71),[2]; sheet Exp2,0.909
same,Abundance Ratio: (11) / (DMSO),[2]; sheet Exp2,2.785
same,Abundances (Grouped): 11,[2]; sheet Exp2,47.9
same,Abundances (Grouped): 11 with PU-H71,"[2]; sheet Exp2, with PU-H71",52.7
same,Abundance Ratio: (11) / (11 with PU-H71),[3]; sheet Exp2,0.752
same,Abundance Ratio: (11) / (DMSO),[3]; sheet Exp2,2.578
same,Abundances (Grouped): 11,[3]; sheet Exp2,76.3
same,Abundances (Grouped): 11 with PU-H71,"[3]; sheet Exp2, with PU-H71",101.4
same,Abundance Ratio: (11) / (11 with PU-H71),[4]; sheet Exp2,0.768
same,Abundance Ratio: (11) / (DMSO),[4]; sheet Exp2,2.545
same,Abundances (Grouped): 11,[4]; sheet Exp2,34.1
same,Abundances (Grouped): 11 with PU-H71,"[4]; sheet Exp2, with PU-H71",44.4
same,Abundance Ratio: (11) / (11 with PU-H71),[5]; sheet Exp2,0.892
same,Abundance Ratio: (11) / (DMSO),[5]; sheet Exp2,8.305
same,Abundances (Grouped): 11,[5]; sheet Exp2,225.9
same,Abundances (Grouped): 11 with PU-H71,"[5]; sheet Exp2, with PU-H71",253.2
same,Abundance Ratio: (11) / (11 with PU-H71),[6]; sheet Exp2,0.7
same,Abundance Ratio: (11) / (DMSO),[6]; sheet Exp2,2.264
same,Abundances (Grouped): 11,[6]; sheet Exp2,124.5
same,Abundances (Grouped): 11 with PU-H71,"[6]; sheet Exp2, with PU-H71",177.9
same,Abundance Ratio: (11) / (11 with PU-H71),protein MAL2 (MAL2); sheet Exp2,0.886
same,Abundance Ratio: (11) / (DMSO),protein MAL2 (MAL2); sheet Exp2,3.449
same,Abundances (Grouped): 11,protein MAL2 (MAL2); sheet Exp2,114.5
same,Abundances (Grouped): 11 with PU-H71,"protein MAL2 (MAL2); sheet Exp2, with PU-H71",129.3
same,Abundance Ratio: (11) / (11 with PU-H71),[7]; Exp3,0.809
same,Abundance Ratio: (11) / (DMSO),[7]; Exp3,0.806
same,Abundances (Grouped): 11,[7]; Exp3,6402
same,Abundances (Grouped): 11 with PU-H71,"[7]; Exp3, with PU-H71",7910.4
same,Abundance Ratio: (11) / (11 with PU-H71),[8]; sheet Exp2,0.821
same,Abundance Ratio: (11) / (DMSO),[8]; sheet Exp2,0.807
same,Abundances (Grouped): 11,[8]; sheet Exp2,7483.9
same,Abundances (Grouped): 11 with PU-H71,"[8]; sheet Exp2, with PU-H71",9110.6
